{"source": "patent US20260209242A1", "about": "“CAMPTOTHECIN DERIVATIVE, PHARMACEUTICAL COMPOSITION, AND PREPARATION METHOD AND USE THEREFOR” (priority 2022, published 2026)", "key": {"MDA-MB-468": {"tested_on": "MDA-MB-468", "experiment": "Inhibition of proliferation of cells MDA-MB-468 (CelltiterGlo, 72 h)", "format": "cell-based", "settings": "Homo sapiens; MDA-MB-468 cells, 72 h, CTG; read-out: IC50 (nM), antiproliferative activity on MDA-MB-468", "protocol": "(§1) • (1) Cell plating: first, tumor cells MDA-MB-468 were cultured using a corresponding culture medium, trypsinized, centrifuged, resuspended for counting, adjusted to an appropriate concentration, and then plated on a 384-well plate. • (2) Co-incubation of the compounds and tumor cells: after the cells adhered to the wall, 100 nL of a diluted bioactive substance (test compound) was added to the cell culture plate using ECHO, the final concentration of DMSO in wells of the cell plate was 0.33%, and the incubation was performed in an incubator at 37° C. with […] for 72 h. • (3) After the incubation was complete, 30 μL of a CTG reagent (CelltiterGlo kit) was added to each well. The culture was oscillated on a fast oscillator for 2 min, centrifuged at 1,000 rpm for 1 min, and kept away from light at room temperature for 30 min. The chemiluminescence signal value was read using an Envision instrument. • (4) Cell viability detection: IC50 was calculated using GraphPad Prism 8 software, and the IC50 of the compounds was obtained using the following nonlinear fitting formula (see Table 2):\n[formula] • Y: inhibition rate: X: log value of compound concentration;\n(§2) [formula] • high-reading control wells: cells with addition of 100 nL DMSO; and • low-reading control wells: cell-free wells."}, "NCI-N87": {"tested_on": "NCI-N87", "experiment": "Inhibition of proliferation of cells NCI-N87 (CelltiterGlo, 72 h)", "format": "cell-based", "settings": "Homo sapiens; NCI-N87 cells, 72 h, CTG; read-out: IC50 (nM), antiproliferative activity on cells NCI-N87", "protocol": "as §1, with “NCI-N87” for “MDA-MB-468”, “3):” for “2):”\n[formula] • Y: inhibition rate, X: log value of compound concentration;\nas §2"}, "[1]": {"experiment": "Stability of compounds in human plasma", "format": "in vitro ADME", "protocol": "• (1) 199 μL of human plasma was added to the culture plate of each cell. The culture plate was preheated to 37° C., and kept at this temperature for 15 min. • (2) After preincubation, 1 μL of 1 mmol/L each test compound and 1 μL of 1 mmol/L control compound were added to 199 μL of plasma, so that a final concentration of each test compound was 5 μmol/L and that of the control compound was 5 gmol/L. The final concentration of the organic solvent was 0.5%. The experiment would be duplicated twice. • (3) Reaction samples were incubated at 37° C. • (4) The reaction was stopped by adding 600 μL of cold methanol containing the internal standard at 0, 1, 2, 6, and 24 h. Each sample was vortex mixed for 10 min, and then centrifuged at 3,220 g for 30 min to precipitate the protein. […] Based on the signal response and peak shapes of liquid chromatography-mass spectrometry (LC-MS), the supernatant would be diluted with ultrapure water.\nAll calculations were performed using Microsoft Excel. The peak area ratio was determined from the chromatogram of extracted ions. The percentage of compounds remaining at each time point was calculated as per the following formula: […]"}, "CYP3A4": {"target": "T1, CYP3A4 (Homo sapiens, UniProt P08684)", "T1 construct": "from tissue; host or cells: human liver microsomes", "T1 sequence (P08684 whole entry)": "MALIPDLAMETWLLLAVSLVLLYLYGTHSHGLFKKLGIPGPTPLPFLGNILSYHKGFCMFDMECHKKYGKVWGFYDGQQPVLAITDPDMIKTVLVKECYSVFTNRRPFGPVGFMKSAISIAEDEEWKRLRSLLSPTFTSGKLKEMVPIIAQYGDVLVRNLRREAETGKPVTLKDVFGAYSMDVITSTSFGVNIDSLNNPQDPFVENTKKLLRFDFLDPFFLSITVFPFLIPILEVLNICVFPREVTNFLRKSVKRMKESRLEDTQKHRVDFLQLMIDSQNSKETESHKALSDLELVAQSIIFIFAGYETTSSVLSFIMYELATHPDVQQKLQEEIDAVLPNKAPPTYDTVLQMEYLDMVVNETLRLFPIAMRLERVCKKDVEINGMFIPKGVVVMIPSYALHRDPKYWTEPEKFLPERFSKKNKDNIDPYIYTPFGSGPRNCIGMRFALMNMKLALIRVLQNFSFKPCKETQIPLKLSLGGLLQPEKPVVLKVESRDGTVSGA", "experiment": "Inhibition on human hepatomicrosomes CYP3A4", "format": "in vitro ADME"}}, "note": "Read-outs that look alike come from different tables or passages of the source."}
{"smiles": "CC[C@@]1(O)C(=O)OCc2c1cc1n(c2=O)Cc2c-1nc1cc(F)c(C)c3c1c2[C@@H](NC(=O)[C@@H](O)C1CC1)CCC3", "note": "[Compound 11-2, (S)-2-cyclopropyl-N-((1S,10S)-10-ethyl-6-fluoro-10-hydroxy-5-methyl-11,14-dioxo-1,2,3,4,10,11,14,16-octahydro-13H-cyclohepta[de]pyrano[3′,4′:6,7]indolizino[1,2-b]quinolin-1-yl)-2-hydroxyacetamide]", "values": [{"measurement": "IC50", "setting": "MDA-MB-468", "result": 4.5, "unit": "nM"}, {"measurement": "IC50", "setting": "NCI-N87", "result": 2.3, "unit": "nM"}, {"measurement": "Residual percentage (%) 1 h", "setting": "[1]; 1 h, 5 μmol/L", "result": 96.80, "unit": "%"}, {"measurement": "Residual percentage (%) 2 h", "setting": "[1]; 2 h, 5 μmol/L", "result": 92.06, "unit": "%"}, {"measurement": "Residual percentage (%) 6 h", "setting": "[1]; 6 h, 5 μmol/L", "result": 94.45, "unit": "%"}, {"measurement": "Residual percentage (%) 24 h", "setting": "[1]; 24 h, 5 μmol/L", "result": 88.81, "unit": "%"}, {"measurement": "stability in human plasma (in words)", "setting": "[1]; plasma", "result": "good stability in human plasma"}, {"measurement": "IC50", "setting": "CYP3A4", "result": "> 30", "unit": "µM"}, {"measurement": "IC50", "setting": "CYP3A4; read-out: 3A4T (IC50 μM), human hepatomicrosomes, substrate testosterone", "result": "> 30", "unit": "µM"}]}
